Measurements: ChEMBL document CHEMBL4819060, “Design, synthesis and assessment of new series of quinazolinone derivatives as EGFR inhibitors along with their cytotoxic evaluation against MCF7 and A549 cancer cell lines” (Bioorg Med Chem Lett, 2021)

How the values were obtained:
[1] = system: MCF7; assay: cells; assay type: functional, cell-based; settings: Homo sapiens
Description: Cytotoxicity against human MCF7 cells incubated for 2 to 4 hrs by MTT assay

[2] = system: A549; assay: Cytotoxicity against human A549 cells incubated for 2 to 4 hrs by MTT assay; assay type: functional, cell-based
[3] = molecular target: Epidermal growth factor receptor (Homo sapiens, UniProt P00533)
Description: Inhibition of EGFR (unknown origin)

[4] = system: MCF7; assay: Induction of apoptosis in human MCF7 cells assessed as early apoptotic cells measured after 24 hrs by Annexin V-FITC/propidium iodide staining based flow cytometry assay (reference value: 0.32%); assay type: functional
[5] = system: MCF7; assay: Induction of cell cycle arrest in human MCF7 cells assessed as accumulation of cells at G0/G1 phase at 1.74 uM after 24 hrs by propidium iodide staining-based flow cytometric analysis (reference value: 52.94%); assay type: functional
[6] = system: MCF7; assay: Induction of cell cycle arrest in human MCF7 cells assessed as accumulation of cells at S phase at 1.74 uM after 24 hrs by propidium iodide staining-based flow cytometric analysis (reference value: 36.57%); assay type: functional
[7] = cells; assay type: ADME, cell-based; settings: Homo sapiens, PCS-800-011
Description: Cytotoxicity against human PCS-800-011 cells

[8] = system: MCF7; assay: Induction of apoptosis in human MCF7 cells assessed as late apoptotic cells measured after 24 hrs by Annexin V-FITC/propidium iodide staining based flow cytometry assay (reference value: 0.12%); assay type: functional
[9] = system: MCF7; assay: Induction of cell cycle arrest in human MCF7 cells assessed as accumulation of cells at G2/M phase at 1.74 uM after 24 hrs by propidium iodide staining-based flow cytometric analysis (reference value: 10.49%); assay type: functional
[10] = system: MCF7; assay: Induction of apoptosis in human MCF7 cells assessed as necrotic cells measured after 24 hrs by Annexin V-FITC/propidium iodide staining based flow cytometry assay (reference value: 1.19%); assay type: functional
[11] = system: MCF7; assay: Induction of cell cycle arrest in human MCF7 cells assessed as accumulation of cells at Pre-G1 phase at 1.74 uM after 24 hrs by propidium iodide staining-based flow cytometric analysis (reference value: 1.63%); assay type: functional
[12] = system: MCF7; assay: Induction of apoptosis in human MCF7 cells assessed as total apoptotic cells measured after 24 hrs by Annexin V-FITC/propidium iodide staining based flow cytometry assay (reference value: 1.63%); assay type: functional
[13] = system: MCF7; assay: Induction of cell cycle arrest in human MCF7 cells assessed as accumulation of cells at Pre-G1 phase at 4.05 uM after 24 hrs by propidium iodide staining-based flow cytometric analysis (reference value: 1.63%); assay type: functional
[14] = system: MCF7; assay: Induction of cell cycle arrest in human MCF7 cells assessed as accumulation of cells at S phase at 4.05 uM after 24 hrs by propidium iodide staining-based flow cytometric analysis (reference value: 36.57%); assay type: functional
[15] = system: MCF7; assay: Induction of cell cycle arrest in human MCF7 cells assessed as accumulation of cells at G2/M phase at 4.05 uM after 24 hrs by propidium iodide staining-based flow cytometric analysis (reference value: 10.49%); assay type: functional
[16] = system: MCF7; assay: Induction of cell cycle arrest in human MCF7 cells assessed as accumulation of cells at G0/G1 phase at 4.05 uM after 24 hrs by propidium iodide staining-based flow cytometric analysis (reference value: 52.94%); assay type: functional

Chain of Epidermal growth factor receptor (P00533 whole entry): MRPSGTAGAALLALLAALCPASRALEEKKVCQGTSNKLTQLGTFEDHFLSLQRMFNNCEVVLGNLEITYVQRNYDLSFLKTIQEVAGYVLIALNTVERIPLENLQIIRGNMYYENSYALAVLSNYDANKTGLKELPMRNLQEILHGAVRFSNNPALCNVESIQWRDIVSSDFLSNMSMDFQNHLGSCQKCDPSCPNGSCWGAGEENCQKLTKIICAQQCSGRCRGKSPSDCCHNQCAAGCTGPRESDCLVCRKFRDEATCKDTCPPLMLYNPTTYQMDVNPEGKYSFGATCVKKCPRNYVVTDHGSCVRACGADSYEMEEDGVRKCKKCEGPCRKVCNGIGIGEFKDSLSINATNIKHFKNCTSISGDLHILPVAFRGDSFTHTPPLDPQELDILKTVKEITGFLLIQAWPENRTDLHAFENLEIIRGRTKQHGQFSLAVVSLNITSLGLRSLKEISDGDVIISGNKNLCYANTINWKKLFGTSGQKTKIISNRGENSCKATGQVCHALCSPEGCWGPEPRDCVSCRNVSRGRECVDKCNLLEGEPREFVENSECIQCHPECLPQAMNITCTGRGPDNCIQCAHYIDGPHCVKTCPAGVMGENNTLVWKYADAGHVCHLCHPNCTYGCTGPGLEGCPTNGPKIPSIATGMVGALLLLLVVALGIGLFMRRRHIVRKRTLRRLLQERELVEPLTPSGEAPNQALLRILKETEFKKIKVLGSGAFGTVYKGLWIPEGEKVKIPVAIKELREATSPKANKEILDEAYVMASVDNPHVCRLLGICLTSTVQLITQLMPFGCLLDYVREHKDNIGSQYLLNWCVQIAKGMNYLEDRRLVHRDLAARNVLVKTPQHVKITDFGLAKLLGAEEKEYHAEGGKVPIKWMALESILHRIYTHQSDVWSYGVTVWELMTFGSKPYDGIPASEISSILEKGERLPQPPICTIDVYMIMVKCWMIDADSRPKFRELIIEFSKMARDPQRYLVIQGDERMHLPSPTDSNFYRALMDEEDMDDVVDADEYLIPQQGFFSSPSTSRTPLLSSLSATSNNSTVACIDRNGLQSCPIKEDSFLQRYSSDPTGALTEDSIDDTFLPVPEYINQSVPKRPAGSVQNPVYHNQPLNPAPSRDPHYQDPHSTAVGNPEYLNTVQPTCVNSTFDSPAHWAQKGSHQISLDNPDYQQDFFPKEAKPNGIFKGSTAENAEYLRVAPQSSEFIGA

Row | SMILES | IC50 [1] [µM] | IC50 [2] [µM] | IC50 [3] [µM] | IC50 [7] [µM] | also measured
1 | O=C1N=C(Nn2c(-c3ccccc3)nc3ccccc3c2=O)S/C1=C/c1ccc(Br)cc1 | 2.3 | 21.3 | – | – | –
2 | CN(/N=N\c1ccc2ncnc(Nc3cccc(Cl)c3)c2c1)C(=O)OCCl | – | – | 0.00039 | – | –
3 | O=C(CNc1ccc(Cl)cc1)Nn1c(-c2ccccc2)nc2ccccc2c1=O | 1.74 | 7.29 | 0.0811 | 51.2 | Activity [4]: 2.56%; Activity [5]: 34.32%; Activity [6]: 29.47%; Activity [8]: 23.65%; Activity [9]: 36.21%; Activity [10]: 11.03%; Activity [11]: 37.24%; Activity [12]: 37.24%
4 | O=C1N=C(Nn2c(-c3ccccc3)nc3ccccc3c2=O)S/C1=C/c1ccccc1 | 4.05 | 0.72 | 0.0656 | 44.3 | Activity [4]: 4.95%; Activity [13]: 26.38%; Activity [8]: 12.16%; Activity [14]: 27.88%; Activity [10]: 9.27%; Activity [15]: 29.17%; Activity [16]: 42.95%; Activity [12]: 26.38%
5 | O=C1N=C(Nn2c(-c3ccccc3)nc3ccccc3c2=O)S/C1=C/c1ccc(O)cc1O | 7.49 | 3.22 | 0.178 | 17.3 | –
6 | CN(C(=O)NCCCl)c1ccc2ncnc(Nc3cccc(Cl)c3)c2c1 | – | – | 0.081 | – | –
7 | COc1ccc(-c2coc3cc(OCC(=O)N/C=C\c4ccc(O)cc4)ccc3c2=O)cc1 | – | – | 0.0331 | – | –
8 | O=C(CNc1ccc(Br)cc1)Nn1c(-c2ccccc2)nc2ccccc2c1=O | 15.1 | 25 | – | – | –
9 | COc1ccc(/C=C2/SC(Nn3c(-c4ccccc4)nc4ccccc4c3=O)=NC2=O)cc1 | 3.76 | 5.31 | 0.136 | 31.4 | –
10 | O=C(CNc1ccc(Cl)cc1Cl)Nn1c(-c2ccccc2)nc2ccccc2c1=O | 4.41 | 187 | – | – | –
11 | CCc1ccc(NCC(=O)Nn2c(-c3ccccc3)nc3ccccc3c2=O)cc1 | 2.42 | 2.1 | 0.143 | 36.9 | –
12 | COc1ccc(/C=C2/SC(Nn3c(-c4ccccc4)nc4ccccc4c3=O)=NC2=O)cc1OC | 1 | 44.7 | – | – | –
13 | O=C(CNc1ccccc1)Nn1c(-c2ccccc2)nc2ccccc2c1=O | 15.2 | 13.3 | – | – | –
